Measurements reported in patent US20230255927A1 (ELANCO TIERGESUNDHEIT AG, priority 2022, published 2023).
Marks after values point to notes of the source that are not given here.

Test system: lactating dairy cattle
Test: Combined analysis of Wisconsin and New York Studies
Format: in vivo
Set-up: DMI / NEL: unit not given here
Details: for Milk protein percentage: all treatments
Procedure: The instant example provides the combined analysis of data from the two studies (Wisconsin Study and New York Study). The two studies were combined statistically to explore effects on milk production efficiency and other variables associated with efficiency. By effectively doubling pen numbers an increase in power of the analysis was provided. Analysis of these combined datasets was performed in various ways, with the inclusion of either weekly milk yield averages or sample day milk yields to calculate milk component yields, component corrected yields, and feed efficiency. Further, the combined dataset was analyzed using data collected from all experimental weeks as well as the exclusion of data from the first three weeks of experimental treatment feeding. This was done to exclude any shifts in response variables while the rumen environment was adapting to the treatment provided. Materials & Methods: All data from both experimental locations were combined and statistically analyzed as a longitudinal experiment design through SAS version 9.4 (SAS Institute Inc., Cary, N.C.). Experimental response variables, excluding body condition score (BCS), were analyzed using PROC MIXED and […] statements to compare treatment means using the following model: γijklm=μ+[…] Where γijklm=an individual observation of the response variable analyzed, Ti=the i^th dietary treatment, Wj=the j^th experimental week, TWij=the interaction of the i^th treatment with the j^th experimental week, Lk=the k^th experimental location, Pl(i*k)=the 1th pen within the i^th treatment and k^th experimental location, WPjl(i*k)=the interaction of the j^th experimental week with the 1th pen within the i^th treatment and k^th experimental location, Cm(l*i*k)=the m^th cow within the 1th pen, the i^th treatment and k^th experimental location, BXmlik=the covariate observation obtained after three weeks of feeding a common diet to all treatment groups, and ∈ijklmn=the random error of the m^th cow within the 1th pen, the i^th treatment and the k^th location. […] Data were analyzed with pen as the experimental unit and cow as the observational unit. Dietary treatment and experimental week were considered fixed effects, whereas location, pen and cow were considered random effects. An auto-regressive covariance structure [AR(1)] was used to analyze repeated measurements (week of experimental period) with cow nested in pen within treatment as the subject. For pen level observations (DMI, production efficiency and NEL measurements), the main effect of cattle was dropped from the statistical model above. Further, pen was used as the subject of the auto-regressive repeated analysis. Degrees of freedom were adjusted using the Kenward-Roger option and multiple treatment […] comparisons were adjusted by the Tukey method. Non-parametric analysis of BCS measurements, via PROC NPAR1WAY, was performed to evaluate differences in dietary treatments at both the initiation of the experiment and during the final week of the experiments. Statistical significance was reported as P≤0.05 and tendencies as 0.05<P≤0.10. […] This analysis, deemed the 'post-acclimation' analysis, removed the first three experimental weeks of data from the experimental dataset, leaving only the fourth to ninth weeks for statistical interpretation. The statistical model was identical to the previously described approach and all data, except for body weight and NEL (due to missing data), were reanalyzed for interpretation.

[1] = 11 g/ton, experimental weeks 4 through 9
[2] = 11 g/ton, sample day, entire experiment
[3] = 11 g/ton, sample day, weeks 4 through 9
[4] = 11 g/ton, weekly averaged, entire experiment
[5] = 11 g/ton, weekly averaged, weeks 4 through 9
[6] = 14.5 g/ton, experimental weeks 4 through 9
[7] = 14.5 g/ton, sample day, entire experiment
[8] = 14.5 g/ton, sample day, weeks 4 through 9
[9] = 14.5 g/ton, weekly averaged, entire experiment
[10] = 14.5 g/ton, weekly averaged, weeks 4 through 9
[11] = 18 g/ton, experimental weeks 4 through 9
[12] = 18 g/ton, sample day, entire experiment
[13] = 18 g/ton, sample day, weeks 4 through 9
[14] = 18 g/ton, weekly averaged, entire experiment
[15] = 18 g/ton, weekly averaged, weeks 4 through 9

SMILES: CC[C@@]1([C@@H]2O[C@@H]([C@H]3O[C@@](O)(CO)[C@H](C)C[C@@H]3C)C[C@@H]2C)CC[C@H]([C@]2(C)CC[C@]3(C[C@H](O)[C@@H](C)[C@@H]([C@@H](C)[C@@H](OC)[C@H](C)C(=O)O)O3)O2)O1 [monensin]
- DMI (11 g/ton, entire experiment): 59.7
- MUN (11 g/ton, entire experiment): 11.0^b mg/dL
- Milk Fat, % (11 g/ton, entire experiment): 4.45%
- Milk Fatty Acid: De novo (11 g/ton, entire experiment): 1.08^b g/100 g
- Milk Fatty Acid: Mixed (11 g/ton, entire experiment): 1.79 g/100 g
- Milk Fatty Acid: Performed (11 g/ton, entire experiment): 1.32 g/100 g
- Milk Fatty Acid: Total FA (11 g/ton, entire experiment): 4.20 g/100 g
- Milk Lactose, % (11 g/ton, entire experiment): 4.66%
- Milk Protein, % (11 g/ton, entire experiment): 3.29%
- DMI [1]: 59.5
- MUN [1]: 11.1^by mg/dL
- Milk Fat, % [1]: 4.46%
- Milk Fatty Acid: Mixed [1]: 1.79^ab g/100 g
- Milk Fatty Acid: Performed [1]: 1.33 g/100 g
- Milk Fatty Acid: Total FA [1]: 4.21 g/100 g
- Milk Lactose, % [1]: 4.65%
- Milk Protein, % [1]: 3.33%
- NEL (11 g/ton, sample day milk yield, entire experiment): 1.53
- Day of Sample Milk Yield [2]: 92.0 lb
- ECM [2]: 100.8^a lb
- ECM:Feed [2]: 1.72^a
- FCM [2]: 95.3^a lb
- FCM:Feed [2]: 1.63^a
- Fat yield [2]: 4.05^xy lb
- Lactose yield [2]: 4.30 lb
- Milk:Feed [2]: 1.56^xy
- Protein yield [2]: 3.02 lb
- SCM [2]: 95.2^xy lb
- SCM:Feed [2]: 1.59^ab
- Day of Sample Milk Yield [3]: 90.6 lb
- ECM [3]: 102.0^ab lb
- ECM:Feed [3]: 1.71^abx
- FCM [3]: 96.2^ab lb
- FCM:Feed [3]: 1.61^b
- Fat yield [3]: 3.98^ab lb
- Lactose yield [3]: 4.23 lb
- Milk:Feed [3]: 1.54^xy
- Protein yield [3]: 3.01 lb
- SCM [3]: 93.9^ab lb
- SCM:Feed [3]: 1.57^abx
- NEL (11 g/ton, weekly averaged milk yield, entire experiment): 1.53
- ECM [4]: 102.8 lb
- ECM:Feed [4]: 1.73^aby
- FCM [4]: 97.2 lb
- FCM:Feed [4]: 1.64^b
- Fat yield [4]: 4.03 lb
- Lactose yield [4]: 4.27 lb
- Milk Yield [4]: 91.5 lb
- Milk:Feed [4]: 1.57
- Protein yield [4]: 3.00 lb
- SCM [4]: 94.7^xy lb
- SCM:Feed [4]: 1.59^by
- ECM [5]: 101.6^y lb
- ECM:Feed [5]: 1.72^b
- FCM [5]: 95.9^y lb
- FCM:Feed [5]: 1.62^b
- Fat yield [5]: 3.97^ab lb
- Lactose yield [5]: 4.19 lb
- Milk Yield [5]: 90.4 lb
- Milk:Feed [5]: 1.55
- Protein yield [5]: 2.99 lb
- SCM [5]: 93.5^aby lb
- SCM:Feed [5]: 1.58^b
- DMI (14.5 g/ton, entire experiment): 59.2
- Milk Fat, % (14.5 g/ton, entire experiment): 4.47%
- Milk Fatty Acid: De novo (14.5 g/ton, entire experiment): 1.08^b g/100 g
- Milk Fatty Acid: Mixed (14.5 g/ton, entire experiment): 1.80 g/100 g
- Milk Fatty Acid: Performed (14.5 g/ton, entire experiment): 1.31 g/100 g
- Milk Fatty Acid: Total FA (14.5 g/ton, entire experiment): 4.20 g/100 g
- Milk Lactose, % (14.5 g/ton, entire experiment): 4.67%
- Milk Protein, % (14.5 g/ton, entire experiment): 3.30%
- DMI [6]: 59.5
- MUN [6]: 11.0^b mg/dL
- Milk Fat, % [6]: 4.50%
- Milk Fatty Acid: Mixed [6]: 1.82^b g/100 g
- Milk Fatty Acid: Performed [6]: 1.32 g/100 g
- Milk Fatty Acid: Total FA [6]: 4.23 g/100 g
- Milk Lactose, % [6]: 4.66%
- Milk Protein, % [6]: 3.33%
- NEL (14.5 g/ton, sample day milk yield, entire experiment): 1.55
- Day of Sample Milk Yield [7]: 92.6 lb
- ECM [7]: 104.1^b lb
- ECM:Feed [7]: 1.77^b
- FCM [7]: 98.6^b lb
- FCM:Feed [7]: 1.68^b
- Fat yield [7]: 4.09^y lb
- Lactose yield [7]: 4.34 lb
- Milk:Feed [7]: 1.61^y
- Protein yield [7]: 3.03 lb
- SCM [7]: 96.0^y lb
- SCM:Feed [7]: 1.64^b
- Day of Sample Milk Yield [8]: 91.3 lb
- ECM [8]: 103.3^b lb
- ECM:Feed [8]: 1.75^by
- FCM [8]: 97.6^b lb
- FCM:Feed [8]: 1.66^c
- Fat yield [8]: 4.06^b lb
- Lactose yield [8]: 4.27 lb
- Milk:Feed [8]: 1.57^y
- Protein yield [8]: 3.02 lb
- SCM [8]: 95.2^b lb
- SCM:Feed [8]: 1.62^by
- NEL (14.5 g/ton, weekly averaged milk yield, entire experiment): 1.54
- ECM [9]: 102.4 lb
- ECM:Feed [9]: 1.74^b
- FCM [9]: 96.9 lb
- FCM:Feed [9]: 1.65^b
- Fat yield [9]: 4.03 lb
- Lactose yield [9]: 4.26 lb
- Milk Yield [9]: 91.0 lb
- Milk:Feed [9]: 1.57
- Protein yield [9]: 2.98 lb
- SCM [9]: 94.5^y lb
- SCM:Feed [9]: 1.61^b
- ECM [10]: 101.7^y lb
- ECM:Feed [10]: 1.72^b
- FCM [10]: 96.1^y lb
- FCM:Feed [10]: 1.63^b
- Fat yield [10]: 4.00^b lb
- Lactose yield [10]: 4.19 lb
- Milk Yield [10]: 89.8 lb
- Milk:Feed [10]: 1.54
- Protein yield [10]: 2.97 lb
- SCM [10]: 93.7^b lb
- SCM:Feed [10]: 1.58^b
- Sample day milk yield difference from the control treatment (18 g/ton treatment, post-acclimation data): 1.5 pounds
- DMI (18 g/ton, entire experiment): 59.7
- MUN (18 g/ton, entire experiment): 10.4^ab mg/dL
- Milk Fat, % (18 g/ton, entire experiment): 4.42%
- Milk Fatty Acid: De novo (18 g/ton, entire experiment): 1.06^ab g/100 g
- Milk Fatty Acid: Mixed (18 g/ton, entire experiment): 1.77 g/100 g
- Milk Fatty Acid: Performed (18 g/ton, entire experiment): 1.30 g/100 g
- Milk Fatty Acid: Total FA (18 g/ton, entire experiment): 4.13 g/100 g
- Milk Lactose, % (18 g/ton, entire experiment): 4.66%
- Milk Protein, % (18 g/ton, entire experiment): 3.29%
- DMI [11]: 60.2
- MUN [11]: 10.4^abx mg/dL
- Milk Fat, % [11]: 4.43%
- Milk Fatty Acid: De novo [11]: 1.07^ab g/100 g
- Milk Fatty Acid: Mixed [11]: 1.78^ab g/100 g
- Milk Fatty Acid: Performed [11]: 1.32 g/100 g
- Milk Fatty Acid: Total FA [11]: 4.16 g/100 g
- Milk Lactose, % [11]: 4.66%
- Milk Protein, % [11]: 3.32%
- NEL (18 g/ton, sample day milk yield, entire experiment): 2.39
- Day of Sample Milk Yield [12]: 91.6 lb
- ECM [12]: 102.2^ab lb
- ECM:Feed [12]: 1.71^a
- FCM [12]: 96.7^ab lb
- FCM:Feed [12]: 1.61^a
- Fat yield [12]: 3.99^xy lb
- Lactose yield [12]: 4.27 lb
- Milk:Feed [12]: 1.55^x
- Protein yield [12]: 2.98 lb
- SCM [12]: 94.1^xy lb
- SCM:Feed [12]: .157^a
- Day of Sample Milk Yield [13]: 90.6 lb
- ECM [13]: 101.4^ab lb
- ECM:Feed [13]: 1.67^a
- FCM [13]: 95.8^ab lb
- FCM:Feed [13]: 1.58^ab
- Fat yield [13]: 3.96^ab lb
- Lactose yield [13]: 4.22 lb
- Milk:Feed [13]: 1.51^x
- Protein yield [13]: 2.97 lb
- SCM [13]: 93.4^ab lb
- SCM:Feed [13]: 1.54^a
- NEL (18 g/ton, weekly averaged milk yield, entire experiment): 2.38
- ECM [14]: 100.9 lb
- ECM:Feed [14]: 1.69^ax
- FCM [14]: 95.5 lb
- FCM:Feed [14]: 1.60^a
- Fat yield [14]: 3.95 lb
- Lactose yield [14]: 4.22 lb
- Milk Yield [14]: 90.4 lb
- Milk:Feed [14]: 1.53
- Protein yield [14]: 2.95 lb
- SCM [14]: 93.1^x lb
- SCM:Feed [14]: 1.56^a
- ECM [15]: 100.2^xy lb
- ECM:Feed [15]: 1.66^a
- FCM [15]: 94.6^xy lb
- FCM:Feed [15]: 1.56^a
- Fat yield [15]: 3.91^ab lb
- Lactose yield [15]: 4.16 lb
- Milk Yield [15]: 89.4 lb
- Milk:Feed [15]: 1.50
- Protein yield [15]: 2.94 lb
- SCM [15]: 92.3^ab lb
- SCM:Feed [15]: 1.53^a
- Milk protein percentage (entire study): 3.29%
- Milk protein percentage (post-acclimation period): 3.32%
